Assay [1] addresses T1, AHR (Homo sapiens, UniProt P35869).
T1 construct: U87 MG glioblastoma cells (ATCC #HTB-14) endogenously expressing AHR; endogenous in cells; host or cells: U87 MG glioblastoma cells (ATCC #HTB-14)
T1 sequence (P35869 11-848): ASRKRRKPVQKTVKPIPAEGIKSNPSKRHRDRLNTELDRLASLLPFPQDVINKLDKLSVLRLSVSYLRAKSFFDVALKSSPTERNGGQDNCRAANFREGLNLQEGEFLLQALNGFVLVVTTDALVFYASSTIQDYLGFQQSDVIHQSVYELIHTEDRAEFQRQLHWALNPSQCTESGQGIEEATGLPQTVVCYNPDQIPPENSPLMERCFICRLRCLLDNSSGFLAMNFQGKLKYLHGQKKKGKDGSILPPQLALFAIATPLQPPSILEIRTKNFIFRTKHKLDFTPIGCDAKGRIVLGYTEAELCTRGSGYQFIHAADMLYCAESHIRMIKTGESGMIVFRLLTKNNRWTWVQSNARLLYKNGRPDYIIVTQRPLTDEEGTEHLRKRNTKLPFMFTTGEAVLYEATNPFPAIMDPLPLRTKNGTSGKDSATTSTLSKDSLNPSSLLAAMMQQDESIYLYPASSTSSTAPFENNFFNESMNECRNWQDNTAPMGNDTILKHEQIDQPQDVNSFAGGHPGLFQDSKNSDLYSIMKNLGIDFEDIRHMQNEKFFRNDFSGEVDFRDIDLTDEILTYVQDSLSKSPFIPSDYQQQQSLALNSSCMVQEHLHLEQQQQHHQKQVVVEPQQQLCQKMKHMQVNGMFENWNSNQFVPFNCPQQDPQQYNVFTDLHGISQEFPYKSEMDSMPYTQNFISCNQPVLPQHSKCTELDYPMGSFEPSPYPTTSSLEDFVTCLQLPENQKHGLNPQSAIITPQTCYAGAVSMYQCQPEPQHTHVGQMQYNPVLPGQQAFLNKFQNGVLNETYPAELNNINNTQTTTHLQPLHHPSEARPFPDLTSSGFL
The assay is described as follows: In vitro assay 1: antagonism in human cell line (AHR transactivation, firefly luciferase reporter, kynurenic acid prestimulated). Type of assay: cell-based. The following applies: AHR Antagonism Human IC50 [M]. The gist of the method: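 U87 MG glioblastoma cells with endogenous AHR, stably carrying a DRE-driven firefly luciferase reporter and constitutive Renilla reporter, prestimulated with kynurenic acid before compound addition. Firefly and Renilla read by dual luciferase; Renilla flags toxicity; normalized to controls (150 μM kynurenic acid + 5 μM staurosporine as full inhibition); repeat values averaged or median.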
A general note: In a reporter assay the amount or activity of a reporter protein is the signal.

Assay [2] concerns the target T2, AHR (Mus musculus, UniProt P30561).
T2 sequence (P30561 1-848 P471L/N533S/M589L): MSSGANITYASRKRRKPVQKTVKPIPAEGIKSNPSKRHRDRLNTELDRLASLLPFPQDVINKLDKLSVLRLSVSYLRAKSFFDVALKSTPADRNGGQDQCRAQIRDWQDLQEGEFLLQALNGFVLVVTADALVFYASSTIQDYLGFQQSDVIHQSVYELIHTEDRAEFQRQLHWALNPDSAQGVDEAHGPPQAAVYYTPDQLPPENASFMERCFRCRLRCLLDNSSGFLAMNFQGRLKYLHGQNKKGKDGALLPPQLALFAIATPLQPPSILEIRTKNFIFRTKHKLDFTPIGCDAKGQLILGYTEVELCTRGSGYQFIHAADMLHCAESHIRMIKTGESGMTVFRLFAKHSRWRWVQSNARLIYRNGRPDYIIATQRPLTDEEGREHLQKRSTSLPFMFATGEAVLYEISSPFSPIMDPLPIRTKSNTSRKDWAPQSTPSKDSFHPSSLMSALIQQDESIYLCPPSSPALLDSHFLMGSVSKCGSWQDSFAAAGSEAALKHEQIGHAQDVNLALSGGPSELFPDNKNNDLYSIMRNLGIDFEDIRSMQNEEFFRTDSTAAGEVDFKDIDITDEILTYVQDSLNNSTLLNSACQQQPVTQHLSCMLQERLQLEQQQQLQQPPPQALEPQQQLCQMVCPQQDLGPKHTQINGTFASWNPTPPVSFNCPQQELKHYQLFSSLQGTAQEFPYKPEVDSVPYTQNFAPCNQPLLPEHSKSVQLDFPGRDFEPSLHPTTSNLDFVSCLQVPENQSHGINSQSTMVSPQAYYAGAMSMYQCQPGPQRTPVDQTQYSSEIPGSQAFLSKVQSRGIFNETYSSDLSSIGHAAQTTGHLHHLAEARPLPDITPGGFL
Kind of assay: In vitro assay 3: antagonism in mouse cell line (AHR transactivation, firefly luciferase reporter, kynurenic acid prestimulated). Type of assay: cell-based. The gist of the method: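 Cells were first stimulated with kynurenic acid, then exposed to test compound, after which firefly luciferase from a DRE-containing AHR reporter was read out. Signal was scaled between positive and negative controls. Cells not given kynurenic acid provided the inhibition reference.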

Where [3] appears, read: Hepa 1c1c7 cells, 200 μM kynurenic acid, 20 hours, firefly luciferase reporter, read-out: AHR Antagonism Mouse IC50.
[4] abbreviates: mouse Hepa 1c1c7 cells, 200 μM kynurenic acid, 20 hours, read-out: AHR Antagonism Mouse IC50.

Read-outs that look alike come from different tables or passages of the source.

A word on the IC50: it is the concentration at which inhibition is half-maximal. For `COc1ccc(-c2nc3c4cccc(OCCC(C)(C)O)c4nc(N[C@@H]4CCCCNC4=O)n3n2)cc1` [Example 1000, (3R)-3-{[7-(3-hydroxy-3-methylbutoxy)-2-(4-methoxyphenyl)[1,2,4]triazolo[1,5-c]quinazolin-5-yl]amino}azepan-2-one], the IC50 against AHR [1] (firefly luciferase reporter) worked out at 9.07e-09 M; on AHR [2] (setting [3]), 8.3 nM.
Turning to `COc1ccc(-c2nc3c4cccc(C#N)c4nc(N[C@@H]4CCCCNC4=O)n3n2)cc1` [Example 721, 2-(4-methoxyphenyl)-5-{[(3R)-2-oxoazepan-3-yl]amino}[1,2,4]triazolo[1,5-c]quinazoline-7-carbonitrile], the 50% inhibitory concentration (IC50) against AHR [1] was 2.47e-09 M; on AHR [2] (setting [4]), 10.6 nM.
For the compound `CC(C)Sc1cccc2c1nc(N[C@@H]1CCCCNC1=O)n1nc(-c3cnn(C)c3)nc21` [Example 768], the IC50 stood at 1.32e-07 M against AHR [1] and 1220 nM at AHR [2] (read-out: AHR Antagonism Mouse IC50, mouse Hepa 1c1c7 cells, 200 μM kynurenic acid, 20 hours).
Take `COc1ccc(-c2nc3c4c(Cl)cccc4nc(N[C@@H]4CCCCNC4=O)n3n2)cc1` [Example 168, (3R)-3-{[10-chloro-2-(4-methoxyphenyl)[1,2,4]triazolo[1,5-c]quinazolin-5-yl]amino}azepan-2-one]: the IC50 is 9.09e-10 M against AHR [1] and 2.21 nM at AHR [2] (setting [4]).
As for `COc1ccc(-c2nc3c4c(C5CC5)cccc4nc(N[C@@H]4CCCCNC4=O)n3n2)cc1` [Example 176, (3R)-3-{[10-cyclopropyl-2-(4-methoxyphenyl)[1,2,4]triazolo[1,5-c]quinazolin-5-yl]amino}azepan-2-one], the half-inhibitory concentration (IC50) on AHR [1] is 6.81e-09 M; on AHR [2] (setting [4]), 6.55 nM.
On to `O=C1NCCCC[C@H]1Nc1nc2ccccc2c2nc(-c3cc(F)ccc3F)nn12` [Example 197, (3R)-3-{[2-(2,5-difluorophenyl)[1,2,4]triazolo[1,5-c]quinazolin-5-yl]amino}azepan-2-one], for which the IC50 against AHR [1] worked out at 4.23e-09 M; at AHR [2] (setting [4]), 1.82 nM.
The like results for `O=C1NCCCC[C@H]1Nc1nc2ccccc2c2nc(-c3ccc(O)c(F)c3)nn12` [Example 629, (3R)-3-{[2-(3-fluoro-4-hydroxyphenyl)[1,2,4]triazolo[1,5-c]quinazolin-5-yl]amino}azepan-2-one] were, in that order, 4.88e-08 M and 190 nM.
For `COc1ccc(-c2nc3c4cccc(C(F)(F)F)c4nc(N[C@@H]4CNCCNC4=O)n3n2)cc1` [Example 422, (6R)-6-{[2-(4-methoxyphenyl)-7-(trifluoromethyl)[1,2,4]triazolo[1,5-c]quinazolin-5-yl]amino}-1,4-diazepan-5-one], in that order: 3.61e-10 M and 0.927 nM.
For `O=C1NCCCC[C@H]1Nc1nc2ccccc2c2nc(-c3cc(F)ccc3OC(F)(F)F)nn12` [Example 492, (3R)-3-({2-[5-fluoro-2-(trifluoromethoxy)phenyl][1,2,4]triazolo[1,5-c]quinazolin-5-yl}amino)azepan-2-one], the IC50 was determined as 2.22e-08 M on AHR [1] and 5.71 nM on AHR [2] (setting [4]).
For `COc1ccc(-c2nc3c4c(C(F)(F)F)cccc4nc(N[C@@H]4CCCCNC4=O)n3n2)cc1` [Example 172, (3R)-3-{[2-(4-methoxyphenyl)-10-(trifluoromethyl)[1,2,4]triazolo[1,5-c]quinazolin-5-yl]amino}azepan-2-one], in that order: 1.29e-08 M and 12 nM.
Take `CC[C@@H](Nc1nc2ccccc2c2nc(-c3cc(C(F)(F)F)ccn3)nn12)C(N)=O` [Example 367, (2R)-2-({2-[4-(trifluoromethyl)pyridin-2-yl][1,2,4]triazolo[1,5-c]quinazolin-5-yl}amino)butanamide]: the IC50 at AHR [1] worked out at 1.91e-07 M; on AHR [2] (setting [4]) it was 10.5 nM.
On to `Cc1nnc(-c2nc3c4ccccc4nc(N[C@@H]4CCCCNC4=O)n3n2)o1` [Example 199, (3R)-3-{[2-(5-methyl-1,3,4-oxadiazol-2-yl)[1,2,4]triazolo[1,5-c]quinazolin-5-yl]amino}azepan-2-one], for which the concentration for half-maximal inhibition (IC50) against AHR [1] stood at 5.37e-07 M; on AHR [2] (setting [4]) it was 114 nM.
The like results for `O=C1NCCNC[C@H]1Nc1nc2ccccc2c2nc(-c3cc(F)ccc3OC(F)(F)F)nn12` [Example 719, (6R)-6-({2-[5-fluoro-2-(trifluoromethoxy)phenyl][1,2,4]triazolo[1,5-c]quinazolin-5-yl}amino)-1,4-diazepan-5-one] were, in that order, 9.56e-06 M and 239 nM.
As to `CC(C)n1cc(-c2nc3c4cccc(Cl)c4nc(N[C@@H]4CCCCNC4=O)n3n2)cn1` [Example 817, (3R)-3-({7-chloro-2-[1-(propan-2-yl)-1H-pyrazol-4-yl][1,2,4]triazolo[1,5-c]quinazolin-5-yl}amino)azepan-2-one], the results for the half-inhibitory concentration (IC50) against AHR [1] (firefly luciferase reporter) and on AHR [2] (setting [3]) were 5.24e-10 M and 1.94 nM, respectively.
Take `CCSc1cccc2c1nc(N[C@@H]1CCCCNC1=O)n1nc(-c3ccc(OC)cc3)nc21` [Example 770, (3R)-3-{[7-(ethylsulfanyl)-2-(4-methoxyphenyl)[1,2,4]triazolo[1,5-c]quinazolin-5-yl]amino}azepan-2-one]: the half-maximal inhibitory concentration (IC50) amounted to 4.04e-09 M on AHR [1] and 5.09 nM on AHR [2] (setting [4]).
On to `COc1ccc(-c2nc3c4cccc(C5COC5)c4nc(N[C@@H]4CCCCNC4=O)n3n2)cc1` [Example 1002, (3R)-3-{[2-(4-methoxyphenyl)-7-(oxetan-3-yl)[1,2,4]triazolo[1,5-c]quinazolin-5-yl]amino}azepan-2-one], for which the 50% inhibitory concentration (IC50) amounted to 1.26e-09 M against AHR [1] (firefly luciferase reporter) and 42 nM at AHR [2] (setting [3]).
In the case of `CCC[C@@H](Nc1nc2ccccc2c2nc(-c3cc(C(F)(F)F)ccn3)nn12)C(=O)NC` [Example 368, N-methyl-N^2-{2-[4-(trifluoromethyl)pyridin-2-yl][1,2,4]triazolo[1,5-c]quinazolin-5-yl}-D-norvalinamide], the 50% inhibitory concentration (IC50) against AHR [1] stood at 5e-08 M; at AHR [2] (setting [4]), 24.8 nM.
For `O=C1NCCC[C@H]1Nc1nc2ccccc2c2nc(-c3cccc(OC(F)(F)F)c3)nn12` [Example 311, (3R)-3-({2-[3-(trifluoromethoxy)phenyl][1,2,4]triazolo[1,5-c]quinazolin-5-yl}amino)piperidin-2-one], in that order: 1.36e-07 M and 111 nM.
For `COc1ccc(-c2nc3c4cccc(Br)c4nc(N[C@H]4COCCNC4=O)n3n2)cc1` [Example 681, (6S)-6-{[7-bromo-2-(4-methoxyphenyl)[1,2,4]triazolo[1,5-c]quinazolin-5-yl]amino}-1,4-oxazepan-5-one], in that order: 1.45e-08 M and 13.1 nM.
With `O=C1NCCNC[C@H]1Nc1nc2ccccc2c2nc(-c3ccc(OC4CC4)cc3)nn12` [Example 411, (6R)-6-({2-[4-(cyclopropyloxy)phenyl][1,2,4]triazolo[1,5-c]quinazolin-5-yl}amino)-1,4-diazepan-5-one], the half-maximal inhibitory concentration (IC50) against AHR [1] turned out to be 1.77e-07 M; on AHR [2] (setting [4]) it was 11.2 nM.
`Cn1cc(-c2nc3c4cccc(Br)c4nc(N[C@H]4CS(=N)(=O)CCNC4=O)n3n2)cn1` (single isomer, unassigned) [Example 857]: the IC50 at AHR [1] (firefly luciferase reporter) was found to be 4.25e-06 M; at AHR [2] (setting [3]), 2140 nM.

For the origin of these results see patent US20230113037A1 (Bayer Aktiengesellschaft, priority 2019, published 2023).
